One assay has as its target T1, human NTPDase1 (CD39) (Homo sapiens, UniProt P49961).
T1 construct: made in house; host or cells: COS-7 cells
T1 sequence (P49961 1-510): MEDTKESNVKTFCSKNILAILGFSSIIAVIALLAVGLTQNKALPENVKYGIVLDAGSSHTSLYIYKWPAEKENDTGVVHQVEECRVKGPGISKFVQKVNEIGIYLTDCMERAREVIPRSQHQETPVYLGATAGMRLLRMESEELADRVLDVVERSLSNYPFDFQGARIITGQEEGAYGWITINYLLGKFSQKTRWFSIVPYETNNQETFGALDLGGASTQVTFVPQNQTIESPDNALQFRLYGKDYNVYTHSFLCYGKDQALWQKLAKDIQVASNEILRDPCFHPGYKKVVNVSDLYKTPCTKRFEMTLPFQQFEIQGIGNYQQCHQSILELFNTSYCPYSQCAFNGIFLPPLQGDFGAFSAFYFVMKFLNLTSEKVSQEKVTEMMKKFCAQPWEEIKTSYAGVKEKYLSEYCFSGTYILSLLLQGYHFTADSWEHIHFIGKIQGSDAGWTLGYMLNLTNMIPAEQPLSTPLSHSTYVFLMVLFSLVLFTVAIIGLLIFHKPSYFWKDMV
Nature of the assay: NTPDase CE-based assay, NTPDase1. The class given is biochemical. As to conditions: 20 µg/mL (12 µM); read-out: NTPDase1 inhibition, selectivity study. How it is done: For monitoring the activity of human NTPDases (subtypes 1, 2, 3 and 8) in the presence of test compounds, a CE-based assay system was used, according to a published procedure ([11], [25]). The following concentrations of test compounds were investigated in initial screening studies: 63 IU/mL of compounds 1 and 2, 30 µM of compound 6. For selectivity studies, the following concentration were employed: 50 IU/mL of 1, 12 µM of 6, and 48 µM of 7. The amount of enzyme was selected according to previously performed enzymatic titration, and adjusted to ensure a 10–20% conversion rate. Enzymes were obtained by transfection of COS-7 cells using plasmids encoding human NTPDase1 (GenBank accession number U87967) ([26]), NTPDase2 (NM_203468) ([27]), a kind gift of Dr. A.F. Knowles (San Diego, CA), NTPDase3 (AF034840) ([28]), a kind gift of Dr. T.L. Kirley (Cincinnati, OH) and human NTPDase8 (AY430414) ([29]) and purified as previously described ([30], [31]). The reaction buffer consisted of 10 mM HEPES, 2 mM CaCl2, and 1 mM MgCl2, pH 7.4. In the CE assay, the selected substrate concentration (ATP) was 100 µM for all studied human NTPDases (-1, -2, -3 and -8). […] The released products were separated by CE and quantified by their UV-absorption at 260 nm with ADP and AMP as external standards, as previously described ([11]); positive and negative controls were included.

In a further assay the test system is human CD4+ T cells. Nature of the assay: Induced Treg differentiation assay. The note with it: U87 cells preincubated with 20 µM ATP plus heparin; supernatant added to CD4+ T cells, day 5 flow cytometry. In kind it is cell-based. As for the experimental part: Human CD4^+ T cells were extracted from buffy coats by positive selection using the StraightFrom™ Buffy Coat CD4 MicroBead Kit (Miltenyi Biotec, Bergisch Gladbach, Germany). CD4^+ T cells were stimulated by ImmunoCult™ Human CD3/CD28/CD2 T Cell Activator at day 1. At days 1 and 3, the indicated compounds or U87 cell supernatant, either of untreated or of heparin-treated cells were added to CD4^+ T cells. Cells were harvested at day 5 and were investigated for CD25 and FoxP3 expression. Therefore, cells were washed once with staining buffer (1% BSA, 0.01% NaN3 in PBS). To avoid nonspecific binding, cells were blocked for 15 min with 3% BSA in PBS. Anti-CD25 antibody (PerCP/Cyanine5.5 anti-human CD25 antibody, RRID : AB_2125478, BioLegend Inc, San Diego, CA, USA) was added and the cells were incubated for 30 min in the dark. Subsequently, cells were washed once with staining buffer and fixed in 150 µL of fixation buffer (3% paraformaldehyde (PFA), 0.1% saponin, and 0.5% Tween-20 in Dulbecco's phosphate-buffered saline) for 30 min at 4°C. […] Samples were measured in triplicates using the Guava® easyCyte HT Flow Cytometer (Merck Millipore, Billerica, MA, USA). Compensation and FMO (fluorescence minus one) controls were conducted. […] Data were evaluated using the FlowJo™ v10.5.3 Software (RRID : SCR_008520, BD Life Sciences, Franklin Lakes, NJ, USA) and Graphpad PRISM 8.4.0.
On the technique in general: In flow cytometry, cells or beads pass a laser one at a time.

Assay [1] concerns ectonucleotidases expressed in U87 cell membrane preparations. Nature of the assay: Enzymatic assay on U87 cell membrane preparations (adenosine formation, CE). In kind it is biochemical, human. The note with it: 6 at 3 and 30 µM, 7 at 35 µM. As for the experimental part: U87 glioblastoma cells were grown in cell culture dishes until reaching a fully covered confluent cell layer. Cells were cultivated at 37°C and 5% CO2 in DMEM with additions of 10% FCS, 1% penicillin/streptomycin (P/S) mixture and 1% L-glutamine. When confluent, the cell culture media was carefully removed and cells were frozen at -20°C overnight. The cells were then scraped off with a cell scraper using 2-3 mL of buffer (5 mM Tris, 2 mM EDTA, pH 7.4), homogenized and centrifuged for 10 min at 1000 g. The supernatant was collected and centrifuged for 60 min at 48000 g and 4°C. The pellet was then resuspended twice with Tris buffer, pH 7.4, followed by vortexing and centrifugation. The whole procedure was performed on ice. Finally, the pellet was resuspended and homogenized. A protein concentration of 1.5 mg/mL was determined with the Bradford method ([35]), and the protein was kept at -20°C until used. The enzymatic assay was performed by incubating the membrane preparation and the substrate at 37°C and 500 rpm for 30 min, followed by heat inactivation at 95°C for 5 min. For the determination of kinetic parameters, several substrate concentrations (from 6 to 500 µM of ATP or AMP) were utilized and incubated with 10 µg of membrane preparation for 30 min at 37°C, followed by heat inactivation. Capillary electrophoresis (CE) was used for analysis and quantification of the enzymatic product according to published procedures ([11], [36]). For the determination of the enzymatic activity 400 µM of ATP were employed, and three different amounts of membrane preparation (6, 10 and 30 µg of protein) were utilized. A positive control using the known NPP1 inhibitor PSB-POM-141 (20 µM) was performed ([19]). Data were obtained from three independent experiments each in duplicate measurements. […] Controls were run in parallel.

In general, inhibition refers to how much of the control response was suppressed.

In the case of `CO[C@H]1O[C@H](COS(=O)(=O)O)[C@@H](O[C@@H]2O[C@@H](C(=O)O)[C@@H](O[C@H]3O[C@H](COS(=O)(=O)O)[C@@H](O[C@@H]4O[C@H](C(=O)O)[C@@H](O[C@H]5O[C@H](COS(=O)(=O)O)[C@@H](O)[C@H](O)[C@H]5NS(=O)(=O)O)[C@H](O)[C@H]4O)[C@H](OS(=O)(=O)O)[C@H]3NS(=O)(=O)O)[C@H](O)[C@H]2OS(=O)(=O)O)[C@H](O)[C@H]1NS(=O)(=O)O` [Compound 6, Fondaparinux], at human NTPDase1 (CD39), the inhibition at 12 µM was ~35%. In addition, the “Treg formation (CD25/FoxP3 positive cells) induced by supernatant of ATP-treated U87 cells” value in the assay with human CD4+ T cells is “reduced Treg formation even below that of the control cells”. The “inhibition of the formation of adenosine from ATP” value in assay [1] is “inhibited the formation of adenosine in a dose-dependent manner”.
